Assays:
[1] = molecular target: Beta-3 adrenergic receptor (Homo sapiens) (UniProt P13945); details: Compound concentration 10.0 uM
[2] = molecular target: Tyrosine-protein kinase CSK (Homo sapiens) (UniProt P41240)
[3] = molecular target: T1, Mitogen-activated protein kinase 13 (Homo sapiens) (UniProt O15264)
T1 sequence (whole entry): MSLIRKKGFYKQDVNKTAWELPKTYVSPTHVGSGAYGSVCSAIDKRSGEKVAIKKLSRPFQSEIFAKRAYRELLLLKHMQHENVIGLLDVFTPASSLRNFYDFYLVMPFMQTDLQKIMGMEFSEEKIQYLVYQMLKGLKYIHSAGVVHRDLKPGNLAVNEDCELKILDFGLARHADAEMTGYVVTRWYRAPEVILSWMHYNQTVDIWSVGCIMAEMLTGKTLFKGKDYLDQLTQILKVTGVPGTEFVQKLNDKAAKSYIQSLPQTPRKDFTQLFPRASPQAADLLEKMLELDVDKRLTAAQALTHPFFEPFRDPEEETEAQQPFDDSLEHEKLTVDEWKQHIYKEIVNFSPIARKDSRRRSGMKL

[4] = system: Phosphatidylinositol 4,5-bisphosphate 3-kinase catalytic subunit alpha isoform (Homo sapiens), P42336 [M1043I]
[5] = molecular target: Bone morphogenetic protein receptor type-1A (Homo sapiens) (UniProt P36894)
[6] = molecular target: T2, Ephrin type-B receptor 4 (Homo sapiens) (UniProt P54760)
T2 sequence (whole entry): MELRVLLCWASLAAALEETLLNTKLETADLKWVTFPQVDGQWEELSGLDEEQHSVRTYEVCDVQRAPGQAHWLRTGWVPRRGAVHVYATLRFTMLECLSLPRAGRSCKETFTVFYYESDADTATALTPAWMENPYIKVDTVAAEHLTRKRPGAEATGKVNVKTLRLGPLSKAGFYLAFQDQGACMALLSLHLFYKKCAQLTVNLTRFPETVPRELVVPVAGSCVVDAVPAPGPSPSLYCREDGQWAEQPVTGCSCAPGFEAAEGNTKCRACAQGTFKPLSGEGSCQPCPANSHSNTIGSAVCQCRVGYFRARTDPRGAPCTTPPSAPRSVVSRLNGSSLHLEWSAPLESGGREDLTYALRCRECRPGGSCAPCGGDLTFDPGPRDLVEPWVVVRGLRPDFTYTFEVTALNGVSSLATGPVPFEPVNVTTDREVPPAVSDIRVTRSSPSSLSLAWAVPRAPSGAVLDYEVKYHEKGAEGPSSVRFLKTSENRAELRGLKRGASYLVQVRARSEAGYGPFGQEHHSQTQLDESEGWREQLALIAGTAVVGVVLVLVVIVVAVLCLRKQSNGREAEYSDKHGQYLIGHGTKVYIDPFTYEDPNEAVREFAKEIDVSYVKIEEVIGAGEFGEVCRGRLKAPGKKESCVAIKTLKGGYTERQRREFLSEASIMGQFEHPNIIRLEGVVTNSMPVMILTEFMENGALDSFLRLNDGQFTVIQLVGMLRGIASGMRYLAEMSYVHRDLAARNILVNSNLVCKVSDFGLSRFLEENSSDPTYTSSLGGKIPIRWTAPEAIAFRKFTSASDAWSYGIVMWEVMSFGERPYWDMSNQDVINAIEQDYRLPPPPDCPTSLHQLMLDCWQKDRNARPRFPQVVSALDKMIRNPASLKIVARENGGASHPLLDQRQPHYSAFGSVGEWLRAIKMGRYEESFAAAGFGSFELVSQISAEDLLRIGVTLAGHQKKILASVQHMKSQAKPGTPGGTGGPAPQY

[7] = molecular target: T3, Myotonin-protein kinase (Homo sapiens) (UniProt Q09013)
T3 sequence (whole entry): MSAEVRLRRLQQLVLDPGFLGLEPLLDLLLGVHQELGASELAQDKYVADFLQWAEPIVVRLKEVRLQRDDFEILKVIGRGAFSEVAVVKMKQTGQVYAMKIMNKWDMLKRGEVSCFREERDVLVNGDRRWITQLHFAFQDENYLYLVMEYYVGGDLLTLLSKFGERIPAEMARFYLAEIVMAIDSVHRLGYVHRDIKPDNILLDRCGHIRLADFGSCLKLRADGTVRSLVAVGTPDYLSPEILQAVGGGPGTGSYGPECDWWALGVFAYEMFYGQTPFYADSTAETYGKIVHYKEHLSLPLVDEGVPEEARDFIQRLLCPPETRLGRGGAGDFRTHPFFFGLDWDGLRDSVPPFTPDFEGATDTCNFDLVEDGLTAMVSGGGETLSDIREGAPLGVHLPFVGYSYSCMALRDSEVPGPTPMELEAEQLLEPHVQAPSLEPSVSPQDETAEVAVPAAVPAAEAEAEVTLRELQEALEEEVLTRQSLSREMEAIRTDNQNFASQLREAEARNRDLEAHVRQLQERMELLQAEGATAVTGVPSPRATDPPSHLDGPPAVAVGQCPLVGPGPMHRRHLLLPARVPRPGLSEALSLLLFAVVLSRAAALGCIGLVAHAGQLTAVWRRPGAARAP

[8] = molecular target: Serine/threonine-protein kinase TAO1 (Homo sapiens) (UniProt Q7L7X3)
[9] = molecular target: Serine/threonine-protein kinase tousled-like 1 (Homo sapiens) (UniProt Q9UKI8)
[10] = molecular target: Serine/threonine-protein kinase LATS1 (Homo sapiens) (UniProt O95835)
[11] = molecular target: MAP kinase-interacting serine/threonine-protein kinase 2 (Homo sapiens) (UniProt Q9HBH9)
[12] = molecular target: Casein kinase I isoform alpha-like (Homo sapiens) (UniProt Q8N752)
[13] = molecular target: RAC-alpha serine/threonine-protein kinase (Homo sapiens) (UniProt P31749)
[14] = molecular target: Angiopoietin-1 receptor (Homo sapiens) (UniProt Q02763)
[15] = molecular target: D(3) dopamine receptor (Homo sapiens) (UniProt P35462); details: Compound concentration 10.0 uM
[16] = Compound concentration 1000.0 nM
[17] = Compound concentration 100.0 nM

Phosphatidylinositol 4,5-bisphosphate 3-kinase catalytic subunit alpha isoform (Homo sapiens), P42336 [M1043I], sequence (P42336 whole entry M1043I, canonical isoform): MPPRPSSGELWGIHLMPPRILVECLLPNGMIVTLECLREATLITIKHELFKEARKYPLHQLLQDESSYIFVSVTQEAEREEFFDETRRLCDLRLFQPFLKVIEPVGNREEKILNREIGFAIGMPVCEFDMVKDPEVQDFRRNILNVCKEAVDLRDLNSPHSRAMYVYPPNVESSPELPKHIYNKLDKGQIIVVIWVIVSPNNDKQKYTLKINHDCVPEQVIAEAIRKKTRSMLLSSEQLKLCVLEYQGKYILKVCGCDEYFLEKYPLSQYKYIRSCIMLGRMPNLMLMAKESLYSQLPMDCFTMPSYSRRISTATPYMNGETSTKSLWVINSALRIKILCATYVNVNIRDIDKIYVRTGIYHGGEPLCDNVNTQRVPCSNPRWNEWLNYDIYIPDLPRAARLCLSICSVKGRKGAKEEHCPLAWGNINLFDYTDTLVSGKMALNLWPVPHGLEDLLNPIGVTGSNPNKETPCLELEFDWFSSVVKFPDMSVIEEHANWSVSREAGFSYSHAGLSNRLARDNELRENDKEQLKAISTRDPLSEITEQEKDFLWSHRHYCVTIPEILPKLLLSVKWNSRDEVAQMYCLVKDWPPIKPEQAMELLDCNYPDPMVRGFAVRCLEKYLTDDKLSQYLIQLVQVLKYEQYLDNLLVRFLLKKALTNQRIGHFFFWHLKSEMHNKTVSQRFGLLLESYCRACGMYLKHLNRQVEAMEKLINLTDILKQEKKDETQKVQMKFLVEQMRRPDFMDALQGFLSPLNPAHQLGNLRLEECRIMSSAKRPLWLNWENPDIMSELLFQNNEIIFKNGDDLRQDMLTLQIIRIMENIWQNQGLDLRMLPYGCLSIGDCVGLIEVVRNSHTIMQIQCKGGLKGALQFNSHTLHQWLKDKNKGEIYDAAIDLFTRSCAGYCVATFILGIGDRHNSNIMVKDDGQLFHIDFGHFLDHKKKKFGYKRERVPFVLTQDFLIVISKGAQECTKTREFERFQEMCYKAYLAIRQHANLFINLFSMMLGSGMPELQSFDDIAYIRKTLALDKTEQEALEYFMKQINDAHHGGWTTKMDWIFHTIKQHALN
Serine/threonine-protein kinase LATS1 (Homo sapiens), sequence (O95835 whole entry): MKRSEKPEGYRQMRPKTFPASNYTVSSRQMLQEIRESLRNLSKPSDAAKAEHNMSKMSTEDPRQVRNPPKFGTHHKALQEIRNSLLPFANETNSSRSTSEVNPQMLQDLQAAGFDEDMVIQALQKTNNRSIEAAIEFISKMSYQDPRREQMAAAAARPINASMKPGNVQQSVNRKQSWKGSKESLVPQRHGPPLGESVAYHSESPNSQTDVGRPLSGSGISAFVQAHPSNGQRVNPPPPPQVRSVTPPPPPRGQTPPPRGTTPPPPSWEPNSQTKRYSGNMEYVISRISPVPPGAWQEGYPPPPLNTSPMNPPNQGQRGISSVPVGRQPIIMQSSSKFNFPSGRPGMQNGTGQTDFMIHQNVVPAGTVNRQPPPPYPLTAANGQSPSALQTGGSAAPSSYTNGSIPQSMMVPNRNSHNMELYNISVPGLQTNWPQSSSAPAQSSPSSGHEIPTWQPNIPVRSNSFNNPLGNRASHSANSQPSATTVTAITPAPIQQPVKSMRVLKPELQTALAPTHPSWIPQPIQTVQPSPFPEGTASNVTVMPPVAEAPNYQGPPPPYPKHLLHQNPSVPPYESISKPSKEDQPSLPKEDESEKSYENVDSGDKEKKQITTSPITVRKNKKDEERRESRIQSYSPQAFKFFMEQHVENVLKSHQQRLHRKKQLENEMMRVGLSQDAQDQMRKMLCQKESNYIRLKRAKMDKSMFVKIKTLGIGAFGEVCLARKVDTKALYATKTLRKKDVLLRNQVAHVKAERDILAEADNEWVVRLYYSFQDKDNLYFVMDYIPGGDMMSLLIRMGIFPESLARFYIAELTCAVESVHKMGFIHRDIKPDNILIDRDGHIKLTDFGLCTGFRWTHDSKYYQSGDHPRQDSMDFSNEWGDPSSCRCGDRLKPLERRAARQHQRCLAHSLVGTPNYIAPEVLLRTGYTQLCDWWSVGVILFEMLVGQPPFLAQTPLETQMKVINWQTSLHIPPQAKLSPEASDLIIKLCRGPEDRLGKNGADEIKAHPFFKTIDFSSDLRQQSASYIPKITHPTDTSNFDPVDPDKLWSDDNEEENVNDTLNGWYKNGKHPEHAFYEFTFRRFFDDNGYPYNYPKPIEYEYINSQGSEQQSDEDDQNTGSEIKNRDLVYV
RAC-alpha serine/threonine-protein kinase (Homo sapiens), sequence (P31749 whole entry): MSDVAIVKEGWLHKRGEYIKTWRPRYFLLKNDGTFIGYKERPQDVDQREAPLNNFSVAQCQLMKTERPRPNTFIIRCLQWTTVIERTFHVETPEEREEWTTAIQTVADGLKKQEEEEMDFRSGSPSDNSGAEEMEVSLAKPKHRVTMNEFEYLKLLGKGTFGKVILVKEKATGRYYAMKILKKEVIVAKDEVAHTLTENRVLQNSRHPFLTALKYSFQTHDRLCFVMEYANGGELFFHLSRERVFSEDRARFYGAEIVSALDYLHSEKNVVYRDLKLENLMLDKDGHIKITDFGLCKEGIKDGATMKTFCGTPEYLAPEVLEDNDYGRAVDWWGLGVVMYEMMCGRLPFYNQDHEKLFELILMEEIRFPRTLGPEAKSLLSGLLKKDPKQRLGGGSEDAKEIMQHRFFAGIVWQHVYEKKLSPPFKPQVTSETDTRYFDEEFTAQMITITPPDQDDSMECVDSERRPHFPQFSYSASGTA
Serine/threonine-protein kinase tousled-like 1 (Homo sapiens), sequence (Q9UKI8 whole entry): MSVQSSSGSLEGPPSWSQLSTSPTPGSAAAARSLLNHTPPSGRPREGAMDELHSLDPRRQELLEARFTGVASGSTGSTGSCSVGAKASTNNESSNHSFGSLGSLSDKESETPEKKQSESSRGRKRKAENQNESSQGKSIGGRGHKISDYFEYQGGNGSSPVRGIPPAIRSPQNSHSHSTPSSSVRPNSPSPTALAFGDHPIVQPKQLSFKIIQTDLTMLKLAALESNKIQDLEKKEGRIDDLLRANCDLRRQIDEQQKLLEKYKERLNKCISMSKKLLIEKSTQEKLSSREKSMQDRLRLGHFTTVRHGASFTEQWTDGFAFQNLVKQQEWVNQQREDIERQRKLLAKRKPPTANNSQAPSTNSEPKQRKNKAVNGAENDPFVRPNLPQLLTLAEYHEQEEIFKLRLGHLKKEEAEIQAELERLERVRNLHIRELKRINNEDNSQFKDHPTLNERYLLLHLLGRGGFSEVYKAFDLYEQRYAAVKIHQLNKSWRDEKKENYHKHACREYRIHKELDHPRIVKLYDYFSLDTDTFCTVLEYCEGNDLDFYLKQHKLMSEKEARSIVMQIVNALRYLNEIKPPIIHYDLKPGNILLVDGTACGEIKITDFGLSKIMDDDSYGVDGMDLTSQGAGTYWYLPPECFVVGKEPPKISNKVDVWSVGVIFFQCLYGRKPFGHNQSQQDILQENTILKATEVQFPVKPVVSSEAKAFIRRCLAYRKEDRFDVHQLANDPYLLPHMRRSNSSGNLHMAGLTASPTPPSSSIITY
D(3) dopamine receptor (Homo sapiens), sequence (P35462 whole entry): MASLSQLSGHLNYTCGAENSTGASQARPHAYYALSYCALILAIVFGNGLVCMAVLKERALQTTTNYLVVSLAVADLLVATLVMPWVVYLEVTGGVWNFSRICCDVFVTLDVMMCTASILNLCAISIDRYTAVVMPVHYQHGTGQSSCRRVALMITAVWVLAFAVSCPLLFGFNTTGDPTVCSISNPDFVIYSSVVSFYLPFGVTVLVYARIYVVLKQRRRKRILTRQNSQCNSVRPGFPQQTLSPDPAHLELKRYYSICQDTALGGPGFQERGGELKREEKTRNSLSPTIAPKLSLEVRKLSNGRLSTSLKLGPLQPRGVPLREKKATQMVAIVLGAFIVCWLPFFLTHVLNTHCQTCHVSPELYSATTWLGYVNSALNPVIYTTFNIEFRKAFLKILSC
Tyrosine-protein kinase CSK (Homo sapiens), sequence (P41240 2-450 limits assumed): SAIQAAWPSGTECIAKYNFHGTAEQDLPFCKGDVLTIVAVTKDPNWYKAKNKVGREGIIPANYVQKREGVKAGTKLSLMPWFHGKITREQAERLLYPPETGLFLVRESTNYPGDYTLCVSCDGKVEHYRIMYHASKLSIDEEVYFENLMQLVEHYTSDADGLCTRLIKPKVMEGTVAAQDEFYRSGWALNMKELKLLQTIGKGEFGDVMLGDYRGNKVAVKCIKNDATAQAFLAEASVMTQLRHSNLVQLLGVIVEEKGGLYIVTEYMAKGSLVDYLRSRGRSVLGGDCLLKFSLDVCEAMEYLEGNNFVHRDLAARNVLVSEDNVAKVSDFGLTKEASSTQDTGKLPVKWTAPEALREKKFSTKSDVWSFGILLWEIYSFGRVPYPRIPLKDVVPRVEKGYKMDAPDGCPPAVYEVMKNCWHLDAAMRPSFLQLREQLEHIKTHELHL
MAP kinase-interacting serine/threonine-protein kinase 2 (Homo sapiens), sequence (Q9HBH9 whole entry, looked up, canonical isoform): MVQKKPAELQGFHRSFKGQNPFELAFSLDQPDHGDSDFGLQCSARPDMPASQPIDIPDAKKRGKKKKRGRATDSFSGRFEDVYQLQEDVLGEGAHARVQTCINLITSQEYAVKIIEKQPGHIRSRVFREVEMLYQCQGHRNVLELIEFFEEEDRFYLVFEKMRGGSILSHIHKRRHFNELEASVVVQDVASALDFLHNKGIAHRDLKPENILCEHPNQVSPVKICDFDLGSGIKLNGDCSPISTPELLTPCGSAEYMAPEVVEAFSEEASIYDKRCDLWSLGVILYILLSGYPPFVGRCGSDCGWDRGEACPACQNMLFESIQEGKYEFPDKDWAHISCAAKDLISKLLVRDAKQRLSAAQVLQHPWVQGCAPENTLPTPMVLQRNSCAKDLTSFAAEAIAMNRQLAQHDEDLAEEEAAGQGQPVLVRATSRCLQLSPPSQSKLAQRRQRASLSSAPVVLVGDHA

C[C@@H]1CN(c2cc(-c3nn(C)c4ccc(OC5(C)CC5)cc34)ncn2)C[C@H](C)O1 [MLi-2-NC]
inactive: inhibition [1] 11.8% | residual activity [2, 16] 100% | residual activity [3, 16] 100% | residual activity [4, 16] 96% | residual activity [5, 16] 85% | residual activity [6, 16] 100% | residual activity [7, 16] 100% | residual activity [8, 16] 82% | residual activity [9, 16] 100% | residual activity [10, 16] 100% | residual activity [11, 16] 67% | residual activity [12, 16] 78% | residual activity [13, 16] 100% | residual activity [14, 16] 94% | inhibition [15] 2.71%

C[C@@H]1CN(c2cc(-c3n[nH]c4ccc(OC5(C)CC5)cc34)ncn2)C[C@H](C)O1 [MLi-2]
inactive: inhibition [1] -5.99% | residual activity [2, 17] 100% | residual activity [3, 17] 96% | residual activity [4, 17] 82% | residual activity [5, 17] 100% | residual activity [6, 17] 79% | residual activity [7, 17] 85% | residual activity [8, 17] 86% | residual activity [9, 17] 94% | residual activity [10, 17] 96% | residual activity [11, 17] 74% | residual activity [12, 17] 100% | residual activity [13, 17] 87% | residual activity [14, 17] 100% | inhibition [15] -0.66%

From ChEMBL document CHEMBL4507291 (2021)
